# Results from patent publication US20230128770A1, “COMPOSITIONS AND METHODS FOR ENHANCING DIFFERENTIATION OF STEM CELL-DERIVED BETA CELLS” (President and Fellows of Harvard College, priority 2019, published 2023).
# Key:
# [1] = tested on: hPSC-derived MPPs differentiating into NGN3+ / CHGA+ endocrine progenitors; assay: Endocrine specification of MPPs at stage 5, flow cytometry and qPCR; type: cell-based, human; conditions: for CHGA+/NKX6-1+ endocrine progenitor cells by the end of stage 5: assayed at stage 5, day 7
# Description: (§1) Differentiations into SC-β cells were performed following a protocol described in [3] and as follows: HUES8 or 1016 cells were seeded at 6×10^5 cells/mL in mTeSR1 media and […] Y27632 (Sigma-Aldrich). The media was changed 48 h later and the differentiations were started 72 h after the cells were seeded. The media changes were as follows:
# (§2) Stage 5 EN: Days 14 and 16: S5+0.25 μM Sant1+100 nM RA+1 μM XXI (EMD Millipore)+10 μM Alk5i II (Axxora)+1 μM T3 (EMD Millipore)+20 ng/mL Betacellulin (Thermo Fisher Scientific). Days 18, 20: S5+25 nM RA+1 μM XXI+10 μM Alk5i II+1 μM T3+20 ng/mL Betacellulin.
# (§3) Control and experimental samples were collected from differentiations performed in parallel with hPSC cells obtained from the same maintenance batch. Treatments with 0.35 μM verteporfin (Sigma-Aldrich), 10 μM roscovitine (Sellekchem), or DMSO (Sigma-Aldrich) were performed at the last stages of the differentiation including stage 4 (days 9-14), stage 5 (days 14-18), and stage 6 (day 18-25, first 7 days) in ultra-low attachment six-well plates (Corning).
# (§4) Differentiated cell clusters were dispersed into a single-cell suspension with TrypLE (Life Technologies) at RT, fixed with 4% paraformaldehyde at 4° C., washed three times in PBS+0.2% bovine serum albumin (Millipore)+0.1% saponin (Sigma), blocked for 30 min at 4° C. in PBS+5% donkey serum+0.1% saponin, incubated with primary antibodies overnight at 4° C., washed, and incubated with secondary antibodies for 1 h at RT. Stained, fixed cells were filtered through a 40-μm nylon mesh into flow cytometry tubes (BD Falcon) and were analyzed for relevant stage-specific marker expression using LSR II flow cytometers (BD Biosciences) and FlowJo for the data analysis. Samples stained with secondary antibodies only were used to gate on cells that are negative and accurately identified cells expressing the markers included in the analysis. For shRNA-infected samples, only infected GFP+ cells were included in the analysis (approximately in 30-40% of all cells). To quantify incorporation of EdU and estimate levels of proliferation, cells pulsed with 10 μM EdU for 4 h were dissociated as described above unless stated otherwise. The Click-IT EdU flow cytometry kit (Invitrogen) was used to detect EdU incorporation following the manufacturer's protocol with minor modifications.
# The total RNA was isolated using the Direct-ZOL Miniprep kit (Zymo Research), and RNA was stored at −80° C. in RNA storage solution (Invitrogen) until subsequent analysis. […] Gene expression levels were determined with NanoString nSolver software with default parameters and normalized with the expression of five housekeeping genes (ITCH, RPL15, RPL19, TCEB1, and UBE2D3). […]
# [2] = tested on: stem cell-derived β cells (SC-β cells); assay: SC-β cell differentiation assayed at end of stage 6 (stage 6, day 14), flow cytometry; type: cell-based, human
# Description: as §1, §2
# Stage 6 (3: Days 21-35 (change every other day): S3 media. In the final stage, cells were analyzed between 28 and 35 days of the protocol.
# as §3
# For infection, cell clusters collected from spinner flask suspension cultures were dissociated in Accutase (StemCell Technologies) for 10 min, followed by mechanical dissociation and centrifugation at 230 g for 5 min at room temperature (RT). Cell pellets were resuspended at a density of 2.5 million cells/mL in the stage-matched medium with polybrene reagent (Santa Cruz) at 8 μg/mL. Single-cell suspensions were combined with concentrated lentiviral particles and plated on ultra-low attachment six-well plates on a rocker plate set at 70 rpm in a 37° C. incubator, 5% CO2, and 100% humidity. Feeding schedule was followed depending on the stage of differentiation as described above.
# as §4
# [3] = tested on: SC-β cell grafts; assay: Mouse transplantation analysis of SC-β cell grafts under the kidney capsule; type: in vivo, immunodeficient SCID-beige mice
# Description: Cell clusters were collected at the end of each of the differentiation stages and fixed with 4% paraformaldehyde for 1 h at RT, washed in 30% sucrose, embedded in OCT compound (Tissue-Tek) and sectioned for histological analysis. Clusters were blocked with PBS+ 0.1% Triton X-100 (VWR)+5% donkey serum (Jackson Immunoresearch) for 30 min at RT, incubated with primary antibodies overnight at 4° C., washed, and incubated with secondary antibodies for 1 h at RT. Stained clusters were washed and mounted in Flouromount-G (Invitrogen), covered with coverslips, and sealed with nail polish. Images were taken using a Zeis Axio Imager.Z2 and Apotome.2. Image analysis was performed with ImageJ. To estimate the relative proportion of cells in the graft, four tissue sections from different areas in the graft were imaged, and the relative proportions of relevant cell types were quantified as a percent of cells positive for the relevant marker of the total number DAPI nuclei. […]
# Dissociated SC-β cells were transplanted into the kidney capsule of immunodeficient SCID-beige mice (Jackson Laboratory), aged 8-10 weeks. […] Wound clips were removed 10 days after surgery and mice were monitored twice a week.
# Mice were then analyzed for graft function at various time points by performing in vivo [3]. […]
# [4] = tested on: hPSC-derived multipotent pancreatic progenitors (MPPs); type: cell-based, human; conditions: 0.35 μM verteporfin during stage 4, vs DMSO
# Description: as §1
# Control and experimental samples were collected from differentiations performed in parallel with hPSC cells obtained from the same maintenance batch. […]
# as §4, with “Samples stained with secondary antibodies only were used to gate on cells that are negative and accurately identified cells expressing the markers included in the analysis. For shRNA-infected samples, only infected GFP+ cells were included in the analysis (approximately in 30-40% of all cells).” left out, “The Click-IT EdU flow cytometry kit (Invitrogen) was used to detect EdU incorporation following the manufacturer's protocol with minor modifications.” left out
# [5] = tested on: SC-β cells; assay: Glucose-stimulated insulin secretion (GSIS) in vitro; type: cell-based, human
# Description: Approximately 1×10^6 SC-β cells in clusters were washed with Krebs buffer and incubated in low (2.8 mM) glucose Krebs in cell culture inserts (Millicell) to starve cells and remove residual insulin at 37° C. for 1 h. Clusters were washed and incubated in low glucose Krebs for 1 h and the supernantant was collected. They were then transferred to high (20 mM) glucose, incubated for 1 h and the supernatant was collected. For sequential GSIS challenges, this sequence of low- and high-glucose stimulations was repeated twice. At the end, clusters were incubated in 2.8 mM glucose+30 mM KCl Krebs (depolarization challenge) for 1 h and the supernatant was collected. Clusters were dispersed into single cells using TrypLE and cell number was estimated by a Vi-Cell counter (Beckman Coulter). Insulin concentration was determined for supernatant samples using the Human Ultrasensitive Insulin ELISA (ALPCO Diagnostics). Protein extraction was performed with the M-PER extraction reagent (Thermo Scientific), and insulin content was measured for each sample using the human Ultrasensitive Insulin ELISA kit. Insulin secretion levels were normalized to total insulin content for each sample. Stimulation indexes were calculated as a ratio of insulin secretion at high glucose (20 mM) relative to the basal secretion (2.8 mM glucose).
molecule,measurement,setting,value
CC[C@H](CO)Nc1nc(NCc2ccccc2)c2ncn(C(C)C)c2n1 [roscovitine],differentiation of MPPs into NGN3+ endocrine progenitors (in words),"[1]; 10 μM roscovitine at stage 5, stage 5, day 4, compared with the verteporfin effect",did not have the same effect
same,CHGA+/NKX6-1+ endocrine progenitor cells by the end of stage 5,[1]; treatment during stage 5,not observed
verteporfin,proportion of C-peptide+/NKX6.1+ β cells,"[2]; 0.35 μM verteporfin, end of stage 6, control 27.5±4.2%",38.6±3.9%
same,glucagon+/C-peptide- alpha cells,"[2]; 0.35 μM verteporfin, end of stage 6, vs control",modest but significant increase
same,effect on SC-endocrine and β-cell differentiation in other hPSC cell lines,"[2]; 1016 and 13B iPSC lines, C-peptide/NKX6.1 and CHGA/NKX6.1 at stage 6 day 14",robust and independent of the genetic background
same,proportion of SOX9+ ductal-like progenitor cells,"[2]; treatment during endocrine and β-cell differentiation stages, end of stage 6, vs control",decrease
same,proportion of Ki67+ proliferating cells,"[2]; verteporfin during endocrine and β-cell differentiation stages, end of stage 6, vs control",decrease
same,impaired endocrine differentiation upon YAPS6A overexpression,"[2]; verteporfin treatment of YAPS6A-overexpressing cells, C-peptide/NKX6.1 at stage 6 day 14",rescued
same,proportion of SOX9+ cells in the grafts,"[3]; cells differentiated in the presence of verteporfin, 12-week post transplantation, SOX9+ of DAPI+, control grafts ~17%",3.1%
same,in vivo glucose-stimulated human insulin secretion,"[3]; grafts of cells differentiated in the presence of verteporfin, serum human insulin before and 30 min after glucose injection, 8 weeks post transplantation",robust
same,proportion of MPPs coexpressing the proliferation marker Ki67,[4]; PDX1/Ki67 at end of stage 4,twofold decrease
same,number of NKX6.1+ progenitors compared with control differentiations,[4]; PDX1/NKX6.1 co-positive cells at end of stage 4,significant decrease
same,"levels of insulin secretion per total insulin content at 2.8 mM glucose, 20 mM glucose, and 30 mM KCl",[5]; SC-β cells differentiated with verteporfin vs DMSO control,significantly higher
same,insulin secretion at high glucose over low glucose in sequential glucose stimulations,"[5]; verteporfin during stages 5 and 6, 20 mM vs 2.8 mM glucose",increase in insulin secretion at high glucose over low glucose
same,stimulation indexes (insulin secretion at 20 mM relative to 2.8 mM glucose),[5]; verteporfin-treated vs control endocrine cells,no statistically significant differences
same,proportion of NGN3+ endocrine progenitors,"[1]; treatment during stage 5, assayed at stage 5, day 4, DMSO control 6.4±0.52%",12.1±2%
same,CHGA+/NKX6-1+ endocrine progenitor cells by the end of stage 5,[1]; treatment during stage 5,increase
